Measurements published in paper PMC8113468, “Sugar transporters enable a leaf beetle to accumulate plant defense compounds” (Nature Communications, 2021).

Assays:
Type in all cases: cell-based
PaGTR3 = target: T1, PaGTR3 (Phyllotreta armoraciae, UniProt A0A858Z6Y2); assay: uptake into transfected High Five insect cells, LC-MS/MS; conditions: equimolar mixture of seven glucosinolates, 200 µM, PBS pH 5.5, 1 h, 27 °C
T1 construct: gene GTR3; full-length ORF in pIEx-4, C-terminal 6xHis tag, expressed in High Five insect cells
T1 sequence (A0A858Z6Y2 1-478): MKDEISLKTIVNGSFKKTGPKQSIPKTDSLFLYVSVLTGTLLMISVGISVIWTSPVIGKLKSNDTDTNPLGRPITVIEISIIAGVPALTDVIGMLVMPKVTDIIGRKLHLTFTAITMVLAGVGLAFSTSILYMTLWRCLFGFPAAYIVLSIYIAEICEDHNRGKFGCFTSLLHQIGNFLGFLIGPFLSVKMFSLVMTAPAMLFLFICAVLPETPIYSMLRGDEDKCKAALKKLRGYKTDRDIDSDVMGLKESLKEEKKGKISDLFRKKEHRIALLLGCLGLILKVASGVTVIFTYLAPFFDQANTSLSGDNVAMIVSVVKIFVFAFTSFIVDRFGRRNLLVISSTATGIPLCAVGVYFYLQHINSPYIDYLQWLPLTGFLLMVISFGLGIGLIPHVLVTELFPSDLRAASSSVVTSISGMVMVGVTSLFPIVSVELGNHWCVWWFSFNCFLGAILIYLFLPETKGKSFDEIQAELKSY

PaGTR1 = target: T2, PaGTR1 (Phyllotreta armoraciae, UniProt A0A858Z6R5); assay: uptake into PaGTR1-expressing Xenopus oocytes, LC-MS/MS; conditions: Kulori buffer with MES pH 6.0, 10 min, room temperature; proton-dependent import; read-out: apparent Km
T2 construct: gene GTR1; full-length ORF without stop codon in pNB1u, C-terminal HA tag, cRNA expressed in Xenopus laevis oocytes

PaGTR2 = target: T3, PaGTR2 (Phyllotreta armoraciae, UniProt A0A858Z6M7); assay: uptake into transfected High Five insect cells, LC-MS/MS; conditions: equimolar mixture of seven glucosinolates, 200 µM, PBS pH 5.5, 1 h, 27 °C
T3 construct: gene GTR2; full-length ORF in pIEx-4, C-terminal 6xHis tag, expressed in High Five insect cells
T3 sequence (A0A858Z6M7 1-504): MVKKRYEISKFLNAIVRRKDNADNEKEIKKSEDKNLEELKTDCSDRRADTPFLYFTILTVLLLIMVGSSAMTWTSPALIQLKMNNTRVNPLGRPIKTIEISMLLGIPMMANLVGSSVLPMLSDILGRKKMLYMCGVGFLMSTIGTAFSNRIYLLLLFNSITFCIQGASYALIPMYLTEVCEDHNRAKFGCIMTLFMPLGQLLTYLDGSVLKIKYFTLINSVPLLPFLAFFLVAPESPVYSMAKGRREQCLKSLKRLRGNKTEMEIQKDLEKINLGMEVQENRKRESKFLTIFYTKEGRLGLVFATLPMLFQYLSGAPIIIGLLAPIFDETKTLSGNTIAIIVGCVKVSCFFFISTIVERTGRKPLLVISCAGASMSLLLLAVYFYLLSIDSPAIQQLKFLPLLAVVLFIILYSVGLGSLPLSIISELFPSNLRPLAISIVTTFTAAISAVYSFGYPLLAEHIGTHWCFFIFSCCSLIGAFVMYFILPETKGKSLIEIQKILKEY

T2 sequence (A0A858Z6R5 entry or part of it): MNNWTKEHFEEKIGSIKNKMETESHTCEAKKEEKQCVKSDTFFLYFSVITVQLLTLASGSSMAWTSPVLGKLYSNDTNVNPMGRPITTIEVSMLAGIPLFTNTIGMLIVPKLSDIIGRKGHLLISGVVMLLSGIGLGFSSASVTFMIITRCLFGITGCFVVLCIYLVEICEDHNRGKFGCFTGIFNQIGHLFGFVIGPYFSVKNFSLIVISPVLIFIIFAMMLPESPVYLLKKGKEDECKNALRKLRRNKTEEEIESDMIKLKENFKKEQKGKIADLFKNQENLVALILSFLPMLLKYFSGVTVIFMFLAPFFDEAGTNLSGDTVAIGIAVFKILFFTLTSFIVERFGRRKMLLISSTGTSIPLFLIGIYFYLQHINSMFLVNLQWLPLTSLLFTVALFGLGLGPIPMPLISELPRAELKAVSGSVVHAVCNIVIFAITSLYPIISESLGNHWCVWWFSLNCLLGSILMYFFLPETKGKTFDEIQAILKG

Km (PaGTR1): 50.6 ± 4.1 µM
SMILES: O=S(=O)(O)O/N=C(/Cc1c[nH]c2ccccc12)S[C@@H]1O[C@H](CO)[C@@H](O)[C@H](O)[C@H]1O [I3M glucosinolate]
uptake into transfected High Five insect cells, LC-MS/MS (PaGTR3): PaGTR2 and PaGTR3 expression was analyzed because the recombinant transporters also used I3M glucosinolate | uptake into transfected High Five insect cells, LC-MS/MS (PaGTR2): PaGTR2 and PaGTR3 expression was analyzed because the recombinant transporters also used I3M glucosinolate
